Source: the CheMixHub viscosity set

Assay: xn = mol fraction of the nth substance listed

Nc1ccccc1Cl + Cc1ccc(Cl)cc1
viscosity [mPa·s], 101 kPa
Settings | x1 = 0.1012 | x1 = 0.2102 | x1 = 0.3125 | x1 = 0.4056 | x1 = 0.5142 | x1 = 0.6125 | x1 = 0.6952 | x1 = 0.7859 | x1 = 0.8859
303.15 K | 0.9617 | 1.175 | 1.405 | 1.644 | 1.963 | 2.287 | 2.586 | 2.936 | 3.344
308.15 K | 0.8921 | 1.097 | 1.318 | 1.543 | 1.833 | 2.12 | 2.377 | 2.674 | 3.014
313.15 K | 0.8377 | 1.031 | 1.238 | 1.446 | 1.711 | 1.968 | 2.195 | 2.451 | 2.737
318.15 K | 0.7836 | 0.9716 | 1.17 | 1.368 | 1.616 | 1.852 | 2.054 | 2.275 | 2.511

CCCCn1cc[n+](C)c1.F[B-](F)(F)F + CN1CCCC1=O
101 kPa
Settings | viscosity [mPa·s]
298.15 K, x1 = 0.2779 | 9.05
298.15 K, x1 = 0.957 | 86.3
303.15 K, x1 = 0.2779 | 7.82
303.15 K, x1 = 0.3423 | 9.48
308.15 K, x1 = 0.4657 | 9.19

CCC(C)O (configuration not stated) + CN(C)C=O
viscosity [mPa·s], 101 kPa
Settings | 298.15 K | 303.15 K | 308.15 K | 313.15 K
x2 = 0.085 | 2.48 | 2.11 | 1.78 | 1.52
x2 = 0.164 | 2.2 | 1.83 | 1.57 | 1.35
x2 = 0.2446 | 2 | 1.65 | 1.41 | 1.23
x2 = 0.3503 | 1.8 | 1.5 | 1.29 | 1.13
x2 = 0.4398 | 1.65 | 1.39 | 1.19 | 1.07
x2 = 0.5035 | 1.51 | – | – | –
x2 = 0.5738 | 1.44 | 1.23 | 1.08 | 1.01
x2 = 0.6512 | 1.32 | 1.14 | 1.02 | 0.97
x2 = 0.7515 | 1.17 | 1.03 | 0.93 | 0.91
x2 = 0.841 | 1.03 | 0.93 | 0.85 | 0.86
x2 = 0.9435 | 0.88 | 0.82 | 0.76 | 0.79

Cc1ccc(O)cc1 + Cc1cccc(O)c1
Settings | viscosity [mPa·s]
298.15 K, 101 kPa, x2 = 0.1388 | 14.5
298.15 K, 101 kPa, x2 = 0.2461 | 14.32
298.15 K, 101 kPa, x2 = 0.3003 | 14.25
298.15 K, 101 kPa, x2 = 0.452 | 14
298.15 K, 101 kPa, x2 = 0.4823 | 13.93
298.15 K, 101 kPa, x2 = 0.5521 | 13.85
298.15 K, 101 kPa, x2 = 0.6238 | 13.73
298.15 K, 101 kPa, x2 = 0.6733 | 13.69
298.15 K, 101 kPa, x2 = 0.7071 | 13.61
298.15 K, 101 kPa, x2 = 0.7373 | 13.6
298.15 K, 101 kPa, x2 = 0.8267 | 13.52
298.15 K, 101 kPa, x2 = 0.9135 | 13.46
313.15 K, 101.3 kPa, x2 = 0.1 | 6.798
313.15 K, 101.3 kPa, x2 = 0.2 | 6.861
313.15 K, 101.3 kPa, x2 = 0.3 | 6.878
313.15 K, 101.3 kPa, x2 = 0.4 | 6.855
313.15 K, 101.3 kPa, x2 = 0.5 | 6.75
313.15 K, 101.3 kPa, x2 = 0.6 | 6.625
313.15 K, 101.3 kPa, x2 = 0.7 | 6.547
313.15 K, 101.3 kPa, x2 = 0.8 | 6.409
313.15 K, 101.3 kPa, x2 = 0.9 | 6.321
323.15 K, 101.3 kPa, x2 = 0.1 | 4.564
323.15 K, 101.3 kPa, x2 = 0.2 | 4.653
323.15 K, 101.3 kPa, x2 = 0.3 | 4.653
323.15 K, 101.3 kPa, x2 = 0.4 | 4.618
323.15 K, 101.3 kPa, x2 = 0.5 | 4.54
323.15 K, 101.3 kPa, x2 = 0.6 | 4.439
323.15 K, 101.3 kPa, x2 = 0.7 | 4.337
323.15 K, 101.3 kPa, x2 = 0.8 | 4.246
323.15 K, 101.3 kPa, x2 = 0.9 | 4.175
